Measured values taken from paper PMC9737391, “Trifluoromethylcinnamanilide Michael Acceptors for Treatment of Resistant Bacterial Infections” (International Journal of Molecular Sciences, 2022).
Converted amounts (≈) assume the structure as drawn. “And” between values parts separate entries of the source, which are not always exact repeats. Equal entries are not always repeated.

How the values were obtained:
[1] = tested on: Mycobacterium marinum CAMP 5644; assay: In vitro antimycobacterial evaluation (MIC); assay type: cell-based; conditions: Mycobacterium marinum, CAMP5644, M. marinum CAMP 5644
M. smegmatis ATCC 700084 = assay: In vitro antimycobacterial evaluation (MIC); assay type: cell-based, Mycobacterium smegmatis; conditions: for MIC: Mycolicibacterium smegmatis, ATCC700084
[2] = tested on: vancomycin-resistant E. faecalis VRE 342B (VRE1); assay: MBC, agar aliquot subculture method; assay type: cell-based, Enterococcus faecalis
[3] = tested on: human monocytic leukemia cell line THP-1; assay: In vitro cell viability (cytotoxicity screening); assay type: cell-based; conditions: 24 h, medium with 10% FBS, ± SD, n = 6
Description: The investigated anilides can be divided into three groups. […] Higher concentrations (than 10 or 30 µM) were not possible to evaluate due to precipitation of the tested compounds in water medium. Based on all these observations, it can be concluded that the high antimicrobial activity of 3,5-CF3-substituted compounds is associated with significant cytotoxic effect against eukaryotic cells. On the other hand, the other still effective compounds, especially agents 1j and 1o, have an insignificant toxic effect, which makes them interesting for further study.
Human monocytic leukemia THP-1 cells obtained from the European Collection of Cell Cultures (ECACC, Salisbury, UK) were used for in vitro antiproliferative assays. A recently described procedure was used.

E. faecalis/VRE = assay: Anti-enterococcal activity, summary over strains; assay type: cell-based, Enterococcus faecalis; conditions: for MIC: Enterococcus faecalis, VRE, average over the named compounds and strains, read-out: average MIC against E. faecalis/VRE; for anti-enterococcal MICs/MBCs: range over E. faecalis and VRE isolates and over the named compounds
S. aureus/MRSA = assay: Antistaphylococcal activity, summary over strains; assay type: cell-based, Staphylococcus aureus; conditions: for MIC: Staphylococcus aureus, MRSA, average over the named compounds and strains, read-out: average MIC against S. aureus/MRSA; for antistaphylococcal MICs/MBCs: range over S. aureus and MRSA isolates and over the named compounds
[4] = tested on: Enterococcus faecalis ATCC 29212; assay: MIC, microtitration broth method; assay type: cell-based; conditions: ATCC29212, E. faecalis reference strain
[5] = tested on: Enterococcus faecalis ATCC 29212; assay: MBC, agar aliquot subculture method; assay type: cell-based; conditions: ATCC29212, E. faecalis reference strain
[6] = tested on: vancomycin-resistant E. faecalis VRE 725B (VRE3); assay: MIC, microtitration broth method; assay type: cell-based, Enterococcus faecalis
[7] = tested on: methicillin-resistant S. aureus 63718 (MRSA3); assay: MBC, agar aliquot subculture method; assay type: cell-based; conditions: Staphylococcus aureus; MRSA 63718
[8] = tested on: methicillin-resistant S. aureus SA 630 (MRSA2); assay: MBC, agar aliquot subculture method; assay type: cell-based; conditions: Staphylococcus aureus; MRSA SA 630
[9] = tested on: methicillin-resistant S. aureus 63718 (MRSA3); assay: MIC, microtitration broth method; assay type: cell-based; conditions: Staphylococcus aureus; MRSA 63718
[10] = tested on: vancomycin-resistant E. faecalis VRE 368 (VRE2); assay: MIC, microtitration broth method; assay type: cell-based, Enterococcus faecalis
[11] = tested on: Staphylococcus aureus ATCC 29213; assay: MIC, microtitration broth method; assay type: cell-based; conditions: ATCC29213, S. aureus ATCC 29213
[12] = tested on: vancomycin-resistant E. faecalis VRE 342B (VRE1); assay: MIC, microtitration broth method; assay type: cell-based, Enterococcus faecalis
[13] = tested on: vancomycin-resistant E. faecalis VRE 368 (VRE2); assay: MBC, agar aliquot subculture method; assay type: cell-based, Enterococcus faecalis
[14] = tested on: methicillin-resistant S. aureus SA 3202 (MRSA1); assay: MIC, microtitration broth method; assay type: cell-based; conditions: Staphylococcus aureus; MRSA SA 3202
[15] = tested on: methicillin-resistant S. aureus SA 3202 (MRSA1); assay: MBC, agar aliquot subculture method; assay type: cell-based; conditions: Staphylococcus aureus; MRSA SA 3202
[16] = tested on: vancomycin-resistant E. faecalis VRE 725B (VRE3); assay: MBC, agar aliquot subculture method; assay type: cell-based, Enterococcus faecalis
S. aureus ATCC 29213 = assay: MTT assay, inhibition of bacterial respiration; assay type: cell-based, Staphylococcus aureus
Excerpt: The MTT assay can be used to assess cell growth by measuring respiration. Respiratory activity of bacterial cells (which is finally reflected in their viability) less than 70% after exposure to the MIC values for each tested compound is considered as a positive result of this assay. This low level of cell oxidative metabolism indicates inhibition of cell growth by inhibition of respiration. The lowest multiples of MIC values that achieved more than 70% inhibition of S. aureus ATCC 29213 viability (%) are shown in Table 3.
The percent inhibition of respiration of S. aureus ATCC 29213 was determined through the MTT assay. The assay was performed as described recently. The percent viability is calculated through the comparison of a measured value and that of the uninhibited control: % viability = OD570E/OD570P × 100, where OD570E is the reading from the compound-exposed cells, while OD570P is the reading from the uninhibited cells (positive control). Cytotoxic potential is determined by a percent viability of <70% [46, 47].

[17] = tested on: Staphylococcus aureus ATCC 29213; assay: MBC, agar aliquot subculture method; assay type: cell-based; conditions: ATCC29213, S. aureus ATCC 29213
[18] = tested on: methicillin-resistant S. aureus SA 630 (MRSA2); assay: MIC, microtitration broth method; assay type: cell-based; conditions: Staphylococcus aureus; MRSA SA 630
[19] = Lipophilicity determination by RP-HPLC; assay type: physicochemical; conditions: RP-HPLC, logarithm of capacity factor k
Description: It is evident from the graphs in Figure 1 that the correlation coefficients of the dependences of log k/log D6.5/log D7.4 have a value of r = 0.999 (n = 32), which means that the investigated compounds behave insignificantly differently in aqueous media with different pH. Moreover, lipophilicity was calculated as log P and Clog P using two prediction programs. […] Therefore, only log P values predicted by ACD/Percepta can be used for correlations with experimental values. These matches are shown in the graphs in Figure 2, and according to the correlation coefficient r~0.940 (n = 32), it can be argued that even the predicted lipophilicity values correlate with the experimentally measured ones. However, the largest variations were observed (no difference for series 1, 2) for compounds substituted with 2-Cl, 2-CF3, 2,5-Cl, 4-F, 4-CF3, and 3,5-F, 3,5-Cl. These are mainly substituents capable of forming hydrogen and other types of non-bonding interactions both with the surrounding environment and within the molecule. Overall, series 1 (3-CF3) is less lipophilic than series 2 (4-CF3), but the differences in the experimental data are insignificant. Unsubstituted derivatives 1a/2a are the least lipophilic compounds, while derivatives 1o/2o (3,5-Cl) and 1p/2p (3,5-CF3) are the most lipophilic compounds.
Experimental determination of lipophilicity values (log k, log D6.5, and log D7.4) was performed under the same conditions and on the same device as described by Strharsky et al..

| Compound | MIC (M. smegmatis ATCC 700084) | MBC [2] | IC50 [3] | MIC (E. faecalis/VRE) | anti-enterococcal MICs/MBCs (E. faecalis/VRE) | melting point | MIC (S. aureus/MRSA) | antistaphylococcal MICs/MBCs (S. aureus/MRSA) | MIC [4] | MBC [7] | MBC [8] | MIC [9] | MIC [11] | MIC [14] | MBC [15] | Conc.: lowest multiple of MIC with at least 70% inhibition of respiratory activity (S. aureus ATCC 29213) | Conc.: the same concentration as multiple of MBC (S. aureus ATCC 29213) | MBC [17] | MIC [18] | log k [19] | also measured |
| --- | --- | --- | --- | --- | --- | --- | --- | --- | --- | --- | --- | --- | --- | --- | --- | --- | --- | --- | --- | --- | --- |
| NNC(=O)c1ccncc1 [INH, isoniazid, reference compound] | 117 µM (≈ 16 µg/mL) |  |  |  |  |  |  |  |  |  |  |  |  |  |  |  |  |  |  |  | MIC [1]: 36.6 µM (≈ 5.02 µg/mL) |
| O=C(/C=C/c1cccc(C(F)(F)F)c1)Nc1cc(Cl)cc(Cl)c1 [1o, (2E)-N-(3,5-Dichlorophenyl)-3-[3-(trifluoromethyl)phenyl]prop-2-enamide] | 11.1 µM (≈ 4 µg/mL) | 22.2 µM (≈ 8 µg/mL) | > 30 µM | ~15 µM (≈ 5.4 µg/mL) | 2.34 to 44.5 µM | 124 to 126 °C | ~1.4 µM (≈ 0.504 µg/mL) | 0.15 to 5.57 µM and 0.146 to 5.57 µM | 11.1 µM (≈ 4 µg/mL) | 1.39 µM (≈ 0.501 µg/mL) | 0.694 µM (≈ 0.25 µg/mL) | 0.694 µM (≈ 0.25 µg/mL) | 0.694 µM (≈ 0.25 µg/mL) | 1.39 µM (≈ 0.501 µg/mL) | 2.78 µM (≈ 1 µg/mL) | 0.25× MIC (0.25× MBC) | 0.25× MIC (0.25× MBC) | 0.694 µM (≈ 0.25 µg/mL) | 0.694 µM (≈ 0.25 µg/mL) | 1.2028 | MBC [5]: 22.2 µM (≈ 8 µg/mL); MIC [6]: 22.2 µM (≈ 8 µg/mL); MIC [10]: 22.2 µM (≈ 8 µg/mL); MIC [12]: 22.2 µM (≈ 8 µg/mL); MBC [13]: 22.2 µM (≈ 8 µg/mL); MBC [16]: 22.2 µM (≈ 8 µg/mL) |
| O=C(/C=C/c1ccc(C(F)(F)F)cc1)Nc1cccc(C(F)(F)F)c1 [2i, (2E)-N-[3-(Trifluoromethyl)phenyl]-3-[4-(trifluoromethyl)phenyl]prop-2-enamide] |  | 22.3 µM (≈ 8.01 µg/mL) | > 10 µM | ~15 µM (≈ 5.39 µg/mL) | 2.34 to 44.5 µM | 134 to 136 °C | ~1.4 µM (≈ 0.503 µg/mL) | 0.15 to 5.57 µM and 0.146 to 5.57 µM | 11.1 µM (≈ 3.99 µg/mL) | 2.78 µM (≈ 0.999 µg/mL) | 1.39 µM (≈ 0.499 µg/mL) | 2.78 µM (≈ 0.999 µg/mL) | 1.39 µM (≈ 0.499 µg/mL) | 2.78 µM (≈ 0.999 µg/mL) | 2.78 µM (≈ 0.999 µg/mL) | 1× MIC (1× MBC) | 1× MIC (1× MBC) | 1.39 µM (≈ 0.499 µg/mL) | 1.39 µM (≈ 0.499 µg/mL) | 0.8867 | MBC [5]: 11.1 µM (≈ 3.99 µg/mL); MIC [6]: 11.1 µM (≈ 3.99 µg/mL); MIC MS (M. smegmatis ATCC 700084): no effect; MIC [10]: 11.1 µM (≈ 3.99 µg/mL); MIC [12]: 11.1 µM (≈ 3.99 µg/mL); MBC [13]: 44.5 µM (≈ 16 µg/mL); MBC [16]: 11.1 µM (≈ 3.99 µg/mL) |
| O=C(/C=C/c1cccc(C(F)(F)F)c1)Nc1cccc(Cl)c1 [1f, (2E)-N-(3-Chlorophenyl)-3-[3-(trifluoromethyl)phenyl]prop-2-enamide] | 24.6 µM (≈ 8.01 µg/mL) |  | > 10 µM |  |  | 126 to 128 °C |  |  |  | 12.3 µM (≈ 4.01 µg/mL) | 6.14 µM (≈ 2 µg/mL) | 6.14 µM (≈ 2 µg/mL) | 12.3 µM (≈ 4.01 µg/mL) | 6.14 µM (≈ 2 µg/mL) | 6.14 µM (≈ 2 µg/mL) | 1× MIC (1× MBC) | 1× MIC (1× MBC) | 12.3 µM (≈ 4.01 µg/mL) | 6.14 µM (≈ 2 µg/mL) | 0.8016 |  |
